Entries after “also recorded” stand apart in the source; their conditions may differ. Residues, ends and D or L forms follow the SMILES beside them. *: point of attachment. Cbz = O=C(OCc1ccccc1)*
Assays:
U266 = assay: Growth inhibition of MM cell line U266; type: cell-based, human; conditions: U266 compared to NCI-H929
Description: (§1) Viability was estimated according to the following formula: […]
(§2) Control cells were cultured in DMSO.

[1] = test system: normal control BM, PBMC, and EPC populations; assay: MTS survival assay, normal control cells; type: cell-based; conditions: FIG. 36D
Description: (§3) MAL3-101 (the structure is shown as the final product in FIG. 12, in FIG. 13, and in FIG. 25B), the proteasome inhibitor MG-132 (A.G. Scientific, San Diego, Calif.) and the Hsp90 inhibitor 17-allylamino-17-demethoxygeldanamycin (17-AAG) (Calbiochem/EMD Biosciences, San Diego, Calif.) were dissolved in dimethylsulfoxide (DMSO; Sigma-Aldrich, St. Louis, Mo.), and stored at −20° C. Final concentration of DMSO was 0.03% and this was used to treat control cells. The MM cell lines examined were NCI-H929, RPMI-8226, and U266 (ATCC, Manassas, Va.). Normal peripheral blood mononuclear cells (PBMC) and bone marrow (BM) cells were obtained from StemCell Technologies (Vancouver, Canada). Primary MM cells and EPCs were from BM aspirates of newly-diagnosed patients following informed consent. MM cells were enriched to >95% CD138^+ cells by positive selection, using anti-CD138 MACS Microbeads according to the manufacturer's instructions (Miltenyi, San Diego, Calif.). […]

NCI-H929 [2] = assay: Cell cycle analysis by PI staining and FACS, NCI-H929; type: cell-based, human; conditions: NCI-H929, 10 μM, within 48 h of culture
Description: Cell cycle analysis of control (DMSO-treated) or MAL3-101-treated NCI-H929 (2×10^5) was assessed by PI staining and FACS analysis of samples. Resulting DNA distributions were analyzed for the proportions of cells in G0/G1 and G2/M phases of the cell cycle after subtractive gating of cell doublets and debris as described in G. Anderson, M. Gries, N. Kurihara, T. Honjo, J. Anderson, V. Donnenberg, A. Donnenberg, I. Ghobrial, M. Y. Mapara, D. Stirling, D. Roodman, S. Lentzsch, Thalidomide derivative CC-4047 inhibits osteoclast formation by down-regulation of PU. 1, Blood 107 (2006) 3098-3105, which is incorporated herein by reference.

[3] = test system: EPCs from multiple myeloma patients; assay: MTS survival assay, endothelial progenitor cells (EPCs) from MM patients; type: cell-based, human; conditions: FIG. 36C
Description: (§4) For endothelial progenitor cells (EPC) outgrowth, bone marrow were further separated using Ficoll-Hypaque (Sigma Chemicals, St Louis, Mo.) density-gradient centrifugation and mononuclear cells were cultured (7×10^6 cells/well) in laminin-coated, 6-well plates (Becton Dickinson Labware, Bedford, Mass.) in EndoCult Basal Medium supplemented with 20% fetal bovine serum (StemCell Technologies, Vancouver, Canada) and antibiotics (100 U/ml penicillin G, 100 μg/ml streptomycin) until confluent. […] Outgrown EPCs were identified by the expression of endothelial and progenitor cell surface markers, including von Willebrand factor (a blood glycoprotein involved in coagulation), vascular endothelial-cadherin (where cadherins are a class of transmembrane proteins), vascular endothelial growth factor receptor-2, CD34, and CD133, as well as the absence of the MM marker CD38, determined by immunocytochemistry and flow cytometry. EPCs were passaged when they were 60-70% confluent by trypsin-ethylenediaminetetraacetic acid (EDTA) treatment (Invitrogen, Carlsbad, Calif.) onto 96-well culture plates (BD Biosciences, San Jose, Calif.). […]

NCI-H929 [4] = assay: Western immunoblotting of caspase-3 and PARP cleavage, NCI-H929; type: cell-based, human; conditions: NCI-H929, 10 μM, time course
Description: Whole-cell lysates were prepared using the Mammalian Cell Lysis Kit (Sigma-Aldrich) and analyzed by Western blot analysis as described in the Zhang reference, cited supra, which is incorporated herein by reference. Equal amounts of protein were separated by SDS-PAGE and electrotransferred onto a nylon membrane. Primary antibodies to detect caspase-3 (Cell Signaling Technology, Danvers, Mass.), poly (ADP-ribose) polymerase (PARP; Abcam, Cambridge, Mass.), and β-actin (Sigma Aldrich) were used along with a HP-conjugated goat-anti-mouse polyclonal secondary antibody (BD Biosciences, Franklin Lakes, N.J.). Enhanced chemiluminescence (ECL) substrate (Pierce Biotechnology, Rockford, Ill.) was used for antibody detection.

primary MM cells = assay: MTS survival assay, primary bone-marrow MM tumor cells from patients; type: cell-based, human; conditions: FIG. 36C
Description: Primary bone-marrow tumor cells and endothelial progenitor cells (EPCs) were obtained from previously untreated MM patients. That is, 10 ml bone marrow aspirates were collected in BD Vacutainers containing heparin (BD, Franklin, N.J.), and red cells may be removed from MM bone marrow samples using a Red Blood Cell Lysis Buffer (Roche Applied Science, Indianapolis, Ind.) to obtain primary tumor cells in marrow samples consisting of greater than 80% CD138-positive tumor cells, determined by flow cytometry as may be desired. Tumor cells were used for experiments the day they were harvested, and were cultured in the MM cell line medium described above.
as §3, with “Canada).” for “Canada). Primary MM cells and EPCs were from BM aspirates of newly-diagnosed patients following informed consent. MM cells were enriched to >95% CD138^+ cells by positive selection, using anti-CD138 MACS Microbeads according to the manufacturer's instructions (Miltenyi, San Diego, Calif.).”

RPMI-8226 = assay: Growth inhibition of MM cell line RPMI-8226; type: cell-based, human; conditions: RPMI-8226 compared to NCI-H929
Description: as §1, §2

[5] = MTS survival assay, endothelial progenitor cells (EPCs) from MM patients; type: cell-based, human; conditions: human, EPCs of MM patients, FIG. 36C, read-out: reduction of viability of EPCs
Description: as §4

SMILES	sensitivity to MAL3-101-induced growth inhibition (U266)	cytotoxicity in normal control cells [1]	decrease in cells in the G2/M phase (NCI-H929 [2])	increase in the sub-G0/G1 phase (NCI-H929 [2])	reduction of viability of EPCs [3]	cleavage of caspase-3 and PARP (NCI-H929 [4])	reduction of viability of MM cells extracted from the BM (primary MM cells)	sensitivity to MAL3-101-induced growth inhibition (RPMI-8226)	cytotoxicity [5]
CCCCCCN(C(=O)CCCCCN1C(=O)NC(c2ccc(-c3ccccc3)cc2)C(C(=O)OCc2ccccc2)=C1C)C(C(=O)NCCCC)c1ccc(OCC(=O)OC)c(C(=O)OC)c1 (stereo not shown) [MAL3-101]	less sensitive	lack of cytotoxicity; also recorded: lack of sensitivity	2.5 fold	~3 fold	10±14%	time-dependent increase in the cleavage of caspase-3 and PARP	33±8%	less sensitive	–
CC(C)C[C@@H](C=O)NC(=O)[C@H](CC(C)C)NC(=O)[C@H](CC(C)C)NC(=O)OCc1ccccc1 [MG-132, reference compound] (Cbz-Leu-Leu-Leu-aldehyde)	–	–	–	–	–	–	44±10%	–	16 ± 17%

Source: patent US8754094B2, “Methods for heat shock protein dependent cancer treatment” (The Research Foundation of State University of New York, priority 2007, dated 2014)
